Laboratory results: patent US20250290034A1, “METHOD FOR PRODUCING NAÏVE PLURIPOTENT STEM CELLS” (KYOTO UNIVERSITY, priority 2022, published 2025)

Experiments:
H9EOS cells = assay: Chemical resetting of primed H9EOS cells to naive state; EGFP-positive cells quantified on Day 14 by flow cytometry; format: cell-based, human; details: for BMP activation judged from resetting efficiency standardized to Chemical only: 1, 5 or 10 μM added to VPA-containing cRM-1 on Days 3-5 (FIG. 10, 11); for resetting efficiency with respect to chemical: VPA-free cRM-1, miR-98-5p transfected Day 1 combined with BMP2 or BMP4 added Day 2 (FIG. 12)
Protocol: After collecting H9EOS and H9EOS (NK) cells and measuring the cell count in the same manner as for subculturing, they were diluted with AK02N medium containing Y-27632 (Nacalai Tesque, 08945-84) and iMatrix-511 silk (Nippi, 387-10131) (culture medium for primed pluripotent stem cells) and seeded on a multiwell plate (modified method of G. Guo, et. al., 144, 2748-2763 (2017)). The medium was exchanged with AK02N on Day 1, with culturing in cRM-1 (NDiff 227 (Takara, Y40002) containing 1 μM PD0325901, 10 ng/ml hLIF, 1 mM VPA) or VPA-free cRM-1 (culture medium for naive pluripotent stem cells) from Day 2 to Day 5, followed by culturing up to Day 14 in cRM-2 (NDiff 227 containing 1 μM PD0325901, 10 ng/ml hLIF, 2 μM Go6983, 2 μM XAV939). The resetting efficiency was quantified by counting the cell count using a flow cytometer, with the EGFP-expressing cells as naive cells.
The mimic used for each miRNA was mirVana miRNA Mimic (Thermo Fisher Scientific). A control, mirVana miRNA Mimic, Negative Control (Thermo Fisher Scientific, 4464058) was also used. Introduction was carried out on either Day 1, 2, 3 or 4, or a combination thereof, during the normal course of resetting, using Lipofectamine RNAiMAX Transfection Reagent (Thermo Fisher Scientific, 13778075) as the miRNA mimic. Culturing was then carried out according to common resetting protocol, and the EGFP-positive cells were quantified on Day 14 using a flow cytometer.
On Day 1 of the resetting protocol shown in FIG. 2, the 22 plasmids were used, either alone or as a mixture of the 22 plasmids minus one each, for transfection together with the transposase-expressing plasmid (pCAG-PBase), using Lipofectamine Stem Transfection Reagent (Thermo Fisher Scientific, STEM00003). Doxycycline was added at a final concentration of 250 ng/ml to cRM-1 on Days 2 to 5 to induce gene expression. Culturing was then carried out according to common resetting protocol, and the EGFP-positive cells were quantified on Day 14 using a flow cytometer.
[…] 2. Culturing was then carried out according to common resetting protocol, and the EGFP-positive cells were quantified on Day 14 using a flow cytometer.
To cRM-1 containing or not containing VPA there was added 10-100 ng/mL of rhBMP4 (Reprocell, 314-BP-010), on one or more of Days 1 to 5 of the resetting protocol of FIG. 2. Culturing was then carried out according to common resetting protocol, and the EGFP-positive cells were quantified on Day 14 using a flow cytometer.
On Day 1 of the resetting protocol of FIG. 2, one siRNA from among NR6A1, TRIM71, LRIG1, DNMT3B, IGF2BP1, CACHD1, PCDH8, L1TD1, SFRP1, VASH2, LIN28B, USP44, MAPK10, DICER1, DPH3, PRTG, MAPK6, HMGA2, LINC01356 (n491112) and LINC01356 (n549768) (all purchased from Horizon Discovery/Dharmacon) was introduced using Lipofectamine RNAiMAX Transfection Reagent (Thermo Fisher Scientific, 13778075). Culturing was then carried out according to common resetting protocol, and the EGFP-positive cells were quantified on Day 14 using a flow cytometer.

[1] = tested on: AdiPS iPS cells and H1, H9EOS and H9 ES cells; assay: Resetting efficiency by SUSD2 staining and flow cytometry; format: cell-based, human; details: all cell lines; miR-98-5p mimic Day 1 or BMP4 Day 2; VPA-containing cRM-1; Day 14 (FIG. 16)
Protocol: AccuMax was added to the cells on Day 14 of the resetting protocol of FIG. 2, and the mixture was incubated at 37° C. for about 10 to 15 minutes, after which the cells were detached. They were then suspended in 1% BSA-PBS to prevent nonspecific antibody binding, and after 30 minutes of blocking on ice, SUSD2 antibody was mixed with the cell suspension to a final concentration of 1:500, reaction was conducted for 30 minutes on ice and the mixture was rinsed with PBS, after which measurement was performed with a flow cytometer.
FIG. 16 is a graph showing resetting efficiency in culturing with VPA-containing cRM-1, using AdiPS iPS cells and H1, H9EOS and H9 ES cells. With mimic_ctrl and mimic-98-5p, cells were transfected with control mimic or miR-98-5p mimic on Day 1, culturing was carried out in VPA-containing cRM-1 from Day 2 to Day 4, and culturing was in cRM-2 from Day 5 to Day 14. For BMP-4, the BMP4 was added to VPA-containing cRM-1 on Day 2 without transfection of cells with control mimic or miR-98-5p mimic, for culturing up to Day 4, and then culturing was in cRM-2 from Day 5 to Day 14. […]

Compound	BMP activation judged from resetting efficiency standardized to Chemical only (H9EOS cells; H9EOS)	percentage of SUSD2-positive cells [1]	resetting efficiency with respect to chemical (H9EOS cells; H9EOS)	other results
Brc1ccc(CSc2nc3ccccc3o2)cc1 [SB-4]	capable of activating BMP	–	–	–
O=C(/C=C/c1ccc(O)cc1)c1ccc(O)cc1O [isoliquiritigenin]	capable of activating BMP	–	–	–
BMP4: recombinant human bone morphogenetic protein BMP4 (Reprocell, 314-BP-010)	–	tended to increase	increase	resetting efficiency (GFP-positive cells) (H9EOS cells; H9EOS transfected with miR-98-5p Day 1, BMP4 added earlier (Day 0/1) with Wnt inhibitor (IWP mix, 1 μM) simultaneously or before, VPA-containing cRM-1 (FIG. 17)): maintaining the resetting efficiency; resetting efficiency compared to chemical (H9EOS cells; H9EOS, BMP added to medium on Day 2, VPA-containing cRM-1 (FIG. 12)): highly significant increase; resetting efficiency (H9EOS cells; H9EOS, rhBMP4 added on Day 0 (FIG. 12, 13)): lower
miR-98-5p: let-7 family miRNA mimic (mirVana), sequence UGAGGUAGUAAGUUGUAUUGUU, SEQ ID 1 (listed as RNA, chemistry not given here; listed as Homo sapiens)	–	tended to increase	increase	resetting efficiency (H9EOS cells; H9EOS, miR-98-5p transfected Day 1 in addition to BMP2 or BMP4 on Day 2, VPA-containing cRM-1 (FIG. 12)): tended to further increase; resetting efficiency (EGFP-positive cells) (H9EOS cells; H9EOS, miRNA mimic transfected on Day 1, cRM-1 containing VPA, Day 14 (FIG. 3, FIG. 4)): significantly high
